One experiment deals with T1, PI3K-delta (Homo sapiens, UniProt O00329).
T1 construct: purchased Upstate; Millipore 14-604
As to the kind of experiment: HTRF PI3K biochemical assay, delta isoform. Particulars: form screened (neutral or TFA salt) given, read-out: PI3Kdelta IC50. On the technique in general: In TR-FRET formats the signal depends on donor and acceptor labels being close together.

The target in another experiment is T2, PI3K-alpha (Homo sapiens, UniProt P42336).
T2 construct: purchased Upstate; Millipore 14-602
T2 sequence (P42336 whole entry): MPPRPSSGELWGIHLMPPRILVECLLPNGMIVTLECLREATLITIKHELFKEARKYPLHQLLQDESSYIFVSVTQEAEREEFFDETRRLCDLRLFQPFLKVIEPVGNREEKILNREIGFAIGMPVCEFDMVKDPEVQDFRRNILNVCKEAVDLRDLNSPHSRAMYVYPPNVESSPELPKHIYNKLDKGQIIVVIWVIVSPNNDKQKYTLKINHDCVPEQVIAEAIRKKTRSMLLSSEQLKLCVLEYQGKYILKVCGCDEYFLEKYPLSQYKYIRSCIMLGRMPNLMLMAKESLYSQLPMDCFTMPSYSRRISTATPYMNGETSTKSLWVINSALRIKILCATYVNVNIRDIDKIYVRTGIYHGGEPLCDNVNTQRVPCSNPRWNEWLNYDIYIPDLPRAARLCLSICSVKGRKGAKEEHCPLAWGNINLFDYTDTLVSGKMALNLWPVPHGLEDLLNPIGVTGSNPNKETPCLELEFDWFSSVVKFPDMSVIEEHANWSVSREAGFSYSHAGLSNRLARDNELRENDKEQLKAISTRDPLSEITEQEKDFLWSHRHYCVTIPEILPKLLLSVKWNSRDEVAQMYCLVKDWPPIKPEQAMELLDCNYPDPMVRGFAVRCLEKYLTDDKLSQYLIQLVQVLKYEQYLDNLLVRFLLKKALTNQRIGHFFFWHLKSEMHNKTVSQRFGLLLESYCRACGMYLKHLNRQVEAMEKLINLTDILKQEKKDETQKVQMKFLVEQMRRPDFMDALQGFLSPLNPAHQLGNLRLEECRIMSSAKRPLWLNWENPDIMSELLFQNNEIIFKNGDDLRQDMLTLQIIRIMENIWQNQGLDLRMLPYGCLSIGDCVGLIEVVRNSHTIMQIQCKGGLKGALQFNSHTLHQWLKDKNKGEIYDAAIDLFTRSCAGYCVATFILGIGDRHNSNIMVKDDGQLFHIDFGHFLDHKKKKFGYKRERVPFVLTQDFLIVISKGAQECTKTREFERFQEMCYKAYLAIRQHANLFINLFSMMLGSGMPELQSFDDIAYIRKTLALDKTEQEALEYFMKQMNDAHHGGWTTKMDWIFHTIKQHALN
T2 sequence (P27986 whole entry partner): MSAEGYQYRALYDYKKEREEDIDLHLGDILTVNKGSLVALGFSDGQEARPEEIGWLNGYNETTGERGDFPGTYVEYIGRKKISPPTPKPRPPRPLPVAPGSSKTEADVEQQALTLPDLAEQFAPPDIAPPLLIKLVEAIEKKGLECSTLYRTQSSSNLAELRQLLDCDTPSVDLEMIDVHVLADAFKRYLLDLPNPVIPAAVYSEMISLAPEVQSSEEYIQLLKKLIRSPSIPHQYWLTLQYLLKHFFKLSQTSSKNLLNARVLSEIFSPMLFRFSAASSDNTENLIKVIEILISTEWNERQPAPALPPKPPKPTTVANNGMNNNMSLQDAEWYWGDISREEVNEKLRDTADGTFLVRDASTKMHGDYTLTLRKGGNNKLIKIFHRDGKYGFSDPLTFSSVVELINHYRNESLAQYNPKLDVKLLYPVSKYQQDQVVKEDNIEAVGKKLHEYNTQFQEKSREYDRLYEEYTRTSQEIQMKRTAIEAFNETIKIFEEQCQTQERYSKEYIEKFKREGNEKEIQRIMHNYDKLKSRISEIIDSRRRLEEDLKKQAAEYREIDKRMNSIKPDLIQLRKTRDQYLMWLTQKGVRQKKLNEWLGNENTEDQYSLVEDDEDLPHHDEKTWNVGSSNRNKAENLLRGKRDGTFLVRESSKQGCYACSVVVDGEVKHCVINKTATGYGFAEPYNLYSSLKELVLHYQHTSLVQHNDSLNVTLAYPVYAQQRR
As to the kind of experiment: HTRF PI3K biochemical assay, alpha isoform. The note with it: ratio PI3K-alpha IC50 value / PI3K-delta IC50 value.

T1 sequence (O00329 whole entry): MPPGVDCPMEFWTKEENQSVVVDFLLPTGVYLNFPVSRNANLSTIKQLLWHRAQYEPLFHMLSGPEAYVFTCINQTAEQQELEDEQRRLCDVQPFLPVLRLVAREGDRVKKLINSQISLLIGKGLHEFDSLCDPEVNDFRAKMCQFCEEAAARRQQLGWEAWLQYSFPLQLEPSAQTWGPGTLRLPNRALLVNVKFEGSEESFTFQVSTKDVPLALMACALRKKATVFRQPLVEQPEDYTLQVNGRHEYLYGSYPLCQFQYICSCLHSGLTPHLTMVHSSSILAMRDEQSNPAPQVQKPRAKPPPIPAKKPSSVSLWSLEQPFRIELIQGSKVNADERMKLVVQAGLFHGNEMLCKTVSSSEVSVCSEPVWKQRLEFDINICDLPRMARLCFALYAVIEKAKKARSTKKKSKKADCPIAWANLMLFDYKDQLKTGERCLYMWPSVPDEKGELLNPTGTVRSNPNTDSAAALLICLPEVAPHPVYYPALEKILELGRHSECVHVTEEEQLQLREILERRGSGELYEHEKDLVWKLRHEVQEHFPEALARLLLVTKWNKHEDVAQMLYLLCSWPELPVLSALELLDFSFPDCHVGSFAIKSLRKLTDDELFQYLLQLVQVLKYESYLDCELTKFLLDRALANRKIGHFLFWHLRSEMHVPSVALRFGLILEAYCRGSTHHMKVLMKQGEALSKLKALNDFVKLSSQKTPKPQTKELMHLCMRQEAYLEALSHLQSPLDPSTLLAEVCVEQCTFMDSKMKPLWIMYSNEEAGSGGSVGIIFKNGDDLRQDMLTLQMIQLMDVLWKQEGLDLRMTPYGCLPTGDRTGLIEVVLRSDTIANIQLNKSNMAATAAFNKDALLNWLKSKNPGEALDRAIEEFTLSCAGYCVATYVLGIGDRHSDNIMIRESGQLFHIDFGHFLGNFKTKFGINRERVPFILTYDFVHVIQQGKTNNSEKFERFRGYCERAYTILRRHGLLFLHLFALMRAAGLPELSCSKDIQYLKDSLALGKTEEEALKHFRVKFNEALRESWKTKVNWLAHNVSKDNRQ
T1 sequence (P27986 whole entry partner): as the sequence (P27986 whole entry partner) above

`CCn1c(-c2cnc(C)nc2)nc2c(N[C@H]3CCN(C(=O)OCCOC)C3)ncnc21` [Compound 13-7, 2-methoxyethyl (3S)-3-{[9-ethyl-8-(2-methylpyrimidin-5-yl)-9H-purin-6-yl]amino}pyrrolidine-1-carboxylate]: at PI3K-delta, the IC50 was determined as 4.1 nM. Further, at PI3K-alpha, the “Selectivity versus PI3Kalpha” value is given as over 10.
On the same counts, the results for `CCn1c(-c2cnc(C)nc2)nc2c(N[C@H]3CCN(C(=O)c4nnsc4C)C3)ncnc21` [Compound 2-71, 9-ethyl-8-(2-methylpyrimidin-5-yl)-N-{(3S)-1-[(5-methyl-1,2,3-thiadiazol-4-yl)carbonyl]pyrrolidin-3-yl}-9H-purin-6-amine] are 4.2 nM and over 10.
On the same counts, the results for `CCn1c(C(=O)NC(C)(C)C)nc2c(N[C@H]3CCN(C(=O)C4CC4)C3)ncnc21` [Compound 6-16, N-tert-butyl-6-{[(3S)-1-(cyclopropylcarbonyl)pyrrolidin-3-yl]amino}-9-ethyl-9H-purine-8-carboxamide] are 20 nM and over 10.
For `CCn1c(-c2cnc(C)nc2)nc2c(N[C@H]3C[C@H](CO)N(C(=O)C4CC4)C3)ncnc21` [Compound 2-52, [(2R,4S)-1-(cyclopropylcarbonyl)-4-{[9-ethyl-8-(2-methylpyrimidin-5-yl)-9H-purin-6-yl]amino}pyrrolidin-2-yl]methanol] the same measures were 4.9 nM and over 10.
As for `CCn1c(-c2cnc(C)nc2)nc2c(N[C@H]3CCN(C(=O)N4CC[C@@H](F)C4)C3)ncnc21` [Compound 12-12, 9-ethyl-N-[(3S)-1-{[(3R)-3-fluoropyrrolidin-1-yl]carbonyl}pyrrolidin-3-yl]-8-(2-methylpyrimidin-5-yl)-9H-purin-6-amine], at PI3K-delta, the IC50 turned out to be 2.9 nM. For the same molecule, the “Selectivity versus PI3Kalpha” value on PI3K-alpha is on record as over 10.
On the same counts, the results for `CCC(=O)N1CC[C@H](Nc2ncnc3c2nc(-c2cnc(C)nc2)n3CC)C1` [Compound 2-17, (S)-1-(3-((9-ethyl-8-(2-methylpyrimidin-5-yl)-9H-purin-6-yl)amino)pyrrolidin-1-yl)propan-1-one] are 2.7 nM and over 10.
On the same counts, the results for `CCn1c(-c2cnc(C)nc2)nc2c(N[C@H]3CCN(C(=O)C4(C)CCCO4)C3)ncnc21` (mixture of isomers) [Compound 2-68, 9-ethyl-8-(2-methylpyrimidin-5-yl)-N-{(3S)-1-[((S and R)-2-methyltetrahydrofuran-2-yl)carbonyl]pyrrolidin-3-yl}-9H-purin-6-amine] are 26 nM and over 10.
For `CCn1c(-c2cnc(C)nc2)nc2c(N[C@H]3CCN(C(=O)N4CCOCC4)C3)ncnc21` [Compound 12-4, 9-ethyl-8-(2-methylpyrimidin-5-yl)-N-[(3S)-1-(morpholin-4-ylcarbonyl)pyrrolidin-3-yl]-9H-purin-6-amine] the same measures were 4.5 nM and over 10.
On to `CCn1c(C(=O)NCC(F)(F)F)nc2c(N[C@H]3CCN(C(=O)C4CCC4)C3)ncnc21` [Compound 6-9, 6-{[(3S)-1-(cyclobutylcarbonyl)pyrrolidin-3-yl]amino}-9-ethyl-N-(2,2,2-trifluoroethyl)-9H-purine-8-carboxamide], for which the IC50 on PI3K-delta is 3.3 nM. Further, the “Selectivity versus PI3Kalpha” value on PI3K-alpha is over 10.
On the same counts, the results for `CCn1c(C(=O)N(C)CC(F)(F)F)nc2c(N[C@H]3CCN(C(=O)C4CC4)C3)ncnc21` [Compound 6-15, 6-{[(3S)-1-(cyclopropylcarbonyl)pyrrolidin-3-yl]amino}-9-ethyl-N-methyl-N-(2,2,2-trifluoroethyl)-9H-purine-8-carboxamide] are 230 nM and over 10.
For `CCn1c(-c2cnc(C)nc2)nc2c(N[C@H]3CCCN(C(=O)C(C)C)C3)ncnc21` [Compound 2-44, 9-ethyl-N-[(3S)-1-(2-methylpropanoyl)piperidin-3-yl]-8-(2-methylpyrimidin-5-yl)-9H-purin-6-amine] the same measures were 9 nM and over 10.
On the same counts, the results for `CCn1c(-c2cnc(C)nc2)nc2c(N[C@H]3CCN(C(=O)NCC4CC4)C3)ncnc21` [Compound 12-7, (3S)-N-(cyclopropylmethyl)-3-{[9-ethyl-8-(2-methylpyrimidin-5-yl)-9H-purin-6-yl]amino}pyrrolidine-1-carboxamide] are 6.4 nM and over 10.
As for `CCn1c(C(F)F)nc2c(N[C@H]3CCN(C(=O)c4ccn(C)n4)C3)ncnc21` [Compound 7-12, 8-(difluoromethyl)-9-ethyl-N-{(3S)-1-[(1-methyl-1H-pyrazol-3-yl)carbonyl]pyrrolidin-3-yl}-9H-purin-6-amine], on PI3K-delta, the IC50 is 39 nM. Also, the “Selectivity versus PI3Kalpha” value on PI3K-alpha is over 10.
For `CCn1c(-c2cnc(C)nc2)nc2c(N[C@H]3C[C@H](C(=O)OC)N(C(=O)C4CC4)C3)ncnc21` [Compound 2-53, methyl (4S)-1-(cyclopropylcarbonyl)-4-{[9-ethyl-8-(2-methylpyrimidin-5-yl)-9H-purin-6-yl]amino}-D-prolinate] the same measures were 4.7 nM and over 10.
On the same counts, the results for `CCn1c(-c2cnc(C)nc2)nc2c(N[C@H]3CCN(C(=O)C45CC(C4)C5)C3)ncnc21` [Compound 2-77, N-[(3S)-1-(bicyclo[1.1.1]pent-1-ylcarbonyl)pyrrolidin-3-yl]-9-ethyl-8-(2-methylpyrimidin-5-yl)-9H-purin-6-amine] are 2.1 nM and over 10.
For the molecule `CCC(=O)N1CC[C@H](Nc2ncnc3c2nc(-c2cnc(OC)c(C)c2)n3C)C1` [Compound 2-12, (S)-1-(3-((8-(6-methoxy-5-methylpyridin-3-yl)-9-methyl-9H-purin-6-yl)amino)pyrrolidin-1-yl)propan-1-one], on PI3K-delta, the IC50 stood at 3.5 nM. On PI3K-alpha, the “Selectivity versus PI3Kalpha” value is recorded as over 10.
For `CCn1c(-c2cnc(C)nc2)nc2c(N[C@H]3CC[C@@H](C(=O)NC)C3)ncnc21` [Compound 5-7], on PI3K-delta, the IC50 amounted to 120 nM. Moreover, the “Selectivity versus PI3Kalpha” value at PI3K-alpha is recorded as over 10.
For `CCc1ccnc(N2CC[C@H](Nc3ncnc4c3nc(-c3cnc(C)nc3)n4CC)C2)c1` [Compound 4-6, 9-ethyl-N-[(3S)-1-(4-ethylpyridin-2-yl)pyrrolidin-3-yl]-8-(2-methylpyrimidin-5-yl)-9H-purin-6-amine] the same measures were 4.7 nM and over 10.
On the same counts, the results for `CCC(C)OC(=O)N1CC[C@H](Nc2ncnc3c2nc(-c2cnc(C)nc2)n3CC)C1` (mixture of isomers) [Compound 13-9, (S and R)-1-methylpropyl (3S)-3-{[9-ethyl-8-(2-methylpyrimidin-5-yl)-9H-purin-6-yl]amino}pyrrolidine-1-carboxylate] are 3.5 nM and over 10.
With `CCn1c(-c2cnc(C)nc2)nc2c(N[C@H]3C[C@H](C(N)=O)N(C(=O)C4CC4)C3)ncnc21` [Compound 15-5, (4S)-1-(cyclopropylcarbonyl)-4-{[9-ethyl-8-(2-methylpyrimidin-5-yl)-9H-purin-6-yl]amino}-D-prolinamide], at PI3K-delta, the IC50 is 3 nM. Also, the “Selectivity versus PI3Kalpha” value at PI3K-alpha was over 10.
For `CCn1c(-c2cnc(C)nc2)nc2c(N[C@H]3CCN(C(=O)C4(C)CC4)C3)ncnc21` [Compound 2-47, 9-ethyl-N-{(3S)-1-[(1-methylcyclopropyl)carbonyl]pyrrolidin-3-yl}-8-(2-methylpyrimidin-5-yl)-9H-purin-6-amine] the same measures were 17 nM and over 10.
On the same counts, the results for `CCCn1c(-c2cnn(CC)c2C)nc2c(N[C@H]3CCN(C(=O)CC)C3)ncnc21` [Compound 9-1, 8-(1-ethyl-5-methyl-1H-pyrazol-4-yl)-N-[(3S)-1-propanoylpyrrolidin-3-yl]-9-propyl-9H-purin-6-amine] are 20 nM and over 10.
For `CCn1c(C(F)F)nc2c(N[C@H]3CCN(C(=O)C4CCC4)C3)ncnc21` [Compound 7-15, N-[(3S)-1-(cyclobutylcarbonyl)pyrrolidin-3-yl]-8-(difluoromethyl)-9-ethyl-9H-purin-6-amine] the same measures were 7.6 nM and over 10.
As to `CCn1c(-c2cnc(C)nc2)nc2c(N[C@H]3CCN(C(=O)C4CC4)C3)ncnc21` [Compound 2-21, (S)-cyclopropyl(3-((9-ethyl-8-(2-methylpyrimidin-5-yl)-9H-purin-6-yl)amino)pyrrolidin-1-yl)methanone], the IC50 on PI3K-delta is under 1 nM. Further, the “Selectivity versus PI3Kalpha” value at PI3K-alpha is recorded as over 10.
On the same counts, the results for `CCn1c(-c2cnc(OC)c(F)c2)nc2c(N[C@H]3CCN(C(=O)c4cncn4C)C3)ncnc21` [Compound 3A-2, 9-ethyl-8-(5-fluoro-6-methoxypyridin-3-yl)-N-{(3S)-1-[(1-methyl-1H-imidazol-5-yl)carbonyl]pyrrolidin-3-yl}-9H-purin-6-amine] are under 1 nM and over 10.
On the same counts, the results for `CCC(=O)N1CC[C@H](Nc2ncnc3c2nc(-c2cnn(-c4ccccc4)c2C)n3C)C1` [Compound 3-11, 9-methyl-8-(5-methyl-1-phenyl-1H-pyrazol-4-yl)-N-[(3S)-1-propanoylpyrrolidin-3-yl]-9H-purin-6-amine] are under 1 nM and over 10.
On to `CCC(=O)N1CC[C@H](Nc2ncnc3c2nc(CC(C)C)n3C)C1` [Compound 7-3, 9-methyl-8-(2-methylpropyl)-N-[(3S)-1-propanoylpyrrolidin-3-yl]-9H-purin-6-amine], for which the IC50 on PI3K-delta was 140 nM. Moreover, the “Selectivity versus PI3Kalpha” value at PI3K-alpha is over 10.
Take `CCn1c(Oc2ccc(OC)c(F)c2)nc2c(N[C@H]3CCN(C(=O)C4CC4)C3)ncnc21` [Compound 8-6, N-[(3S)-1-(cyclopropylcarbonyl)pyrrolidin-3-yl]-9-ethyl-8-(3-fluoro-4-methoxyphenoxy)-9H-purin-6-amine]: at PI3K-delta, the IC50 is 8.2 nM. For the same molecule, the “Selectivity versus PI3Kalpha” value at PI3K-alpha is over 10.

The values above are taken from patent publication US9938281B2 (Merck Sharp & Dohme Corp., priority 2012, dated 2018).
